Data reported in patent US20130085105A1, “Transdermal Administration Of Peptides” (The Provost, Fellows and Scholars of the College of Holy …, priority 2010, published 2013).
Like-named read-outs stand apart in the source and are kept apart here.

Legend:
[1] = Calculation of required transdermal delivery rate in humans (Eqn. 10.5); settings: human; for required steady-state transdermal flux: skin area of 20 cm^2, Cpss 1 ng/ml (Compound A), 0.5 ng/ml (Compound B, using Compound A parameters)
Protocol: (§1) The values obtained for the intermediate dose of 21 μg/Kg were used to determine the necessary input rate, i.e., steady state flux, required in humans to achieve therapeutic plasma levels as outlined by Lee et al. (Res. Comm. Mol. Path. Pharmacol., 85, 337-346, 1994) in their studies on melatonin. […] As described by Chatterjee et al. (Pharm. Res., 14:1058-1065, 1997), the following equation can be used to predict required delivery rates, assuming transdermal delivery can be treated as an intravenous infusion:
where K0 is the required zero order delivery rate to achieve a therapeutic steady state plasma concentration (Cpss). […] Thus, for a skin area of 20 cm^2, the required steady-state transdermal flux would be 0.45 μg/cm^2/hr. Assuming a therapeutic plasma level of 0.5 ng/ml for Compound B and utilizing the relevant Compound A parameters, a required steady-state flux of 0.23 μg/cm^2/hr was calculated for a skin area of 20 cm^2.

[2] = In vitro transdermal permeation, diffusion cell, pig epidermis; format: in vitro ADME, domestic pigs
Protocol: The viable epidermal layer was removed from the flanks of freshly sacrificed four month-old female domestic pigs. The flank area of each animal was carefully shaved and the upper 200 μm of skin (Meyer, W., et al., Curr. Prob. Dermatol., 7: 39-52, 1978; de Jalón, et al., J. Control. Rel., 75:191-197, 2001) was harvested using an electric dermatome (Robbins Instruments, Chatham, N.J., U.S.A.). Pigskin epidermal specimens were frozen at −18° C. between layers of PBS-soaked tissue paper enclosed in aluminum foil for up to two weeks prior to use in in vitro permeation studies.
A custom made finite dosing diffusion cell (AGB Scientific, Dublin, Ireland, FIG. 1) based upon and modified from the Keshary-Chien type diffusion cell was used for in vitro permeation studies.
Three to five diffusion cells were used in each permeation experiment and monitoring was performed over a 48 hour period. The cells were linked in series to a thermostatically controlled circulation bath set at 35° C. to mimic human skin surface temperature. Each cell was placed on a stir-plate set at a defined stirring rate of 1,000 rpm. The surface area for permeation provided by each cell was 3.14 cm^2.
Data collected from each permeation study included:
1) the average maximum flux obtained in 48 hours (Jmax),
2) the total absorption characterized as the total weight of peptide delivered transdermally into the receiver compartment over a 48 hour period,
3) the lag time to detectable flux which was equivalent to the latest sampling time at which no peptide was detectable by HPLC analysis of the receiver solution, and
4) an equivalent 48-hour steady state flux was determined by obtaining the slope of the best-fit line for a plot of cumulative flux per unit area versus time (described by McDaid, D. M. et al., Int. J. Pharm., 133:71-83, 1996).
Fresh hairless mouse skin samples or fresh or freshly thawed pig skin samples were mounted onto the diffusion cell with the SC topmost and in contact with the donor system. A rubber or plastic ring was placed on top of the skin sample to secure it in position. The combination of the diffusion cell top, the skin and the rubber ring was securely fastened together by means of a threaded cap. A recorded volume of receiver solution was added to the receiver compartment and maintained at 35° C. The receiver solution was 60/40 (v/v) PBS/propylene glycol (pH 7.1). The propylene glycol fraction was used to increase the solubility of the somatostatin-fatty acid salts. Previous work reported by Morgan et al. (J. Pharm. Sci., 87:1213-1218, 1998) has shown that a 50/50 water/propylene glycol receptor solution had no detrimental effect on the barrier integrity of both hairless mouse and porcine skin.
The receiver solution was allowed to equilibrate at 35° C. for 30 minutes. The experiment was initiated by the application of 1 ml of donor solution containing approximately 5 mg free base peptide in DMSO to the skin surface followed by sealing of the donor compartment with Parafilm®. A narrow-bore hypodermic needle was used to withdraw 1 ml samples from the receiver compartment via the sampling port; at each sampling time, an equal volume of drug-free receiver solution was immediately added back to the receiver compartment. Samples were analyzed by HPLC.
HPLC determination of peptide content in the receiver solution along with the known surface area of skin used (3.14 cm^2) allowed for calculation of transdermal flux (in units of μg/cm^2/hr) for each time point. Panels 1 and 2 of FIG. 2 show flux profiles obtained for the oleate salts of Compound A and Compound B in DMSO which far exceeded the flux profiles for the myristate, octanoate, decanoate, linoleate, nonanote, acetate and laurate salts of Compound A as well as the acetate salt of Compound B in DMSO. […]

[3] = Pharmacokinetics of Compound A after i.v. infusion to healthy human volunteers (Chassard et al.); format: in vivo
Protocol: A number of basic equations exist for the prediction of drug plasma levels in humans obtained by transdermal delivery. In order to make use of these equations, basic human pharmacokinetic parameters are required for the drug in question. Chassard et al. (J. Endocrinol. Invest. 20(Supp. to no. 7):30-32, 1997) reported on the pharmacokinetics of Compound A after i.v. infusion of 7, 21 and 42 μg/Kg to healthy human volunteers (n=12) obtaining values as shown in Table 20.
as §1, with “infusion: […]” for “infusion:”

[4] = human, cited from earlier work
[5] = cited from earlier work
[6] = mice, topical with 1% N-decylmethylsulfoxide, within 2 hours of administration; cited from earlier work
[7] = rabbits, iontophoresis; cited from earlier work

## CC(C)[C@@H]1NC(=O)[C@H](CCCCN)NC(=O)[C@@H](Cc2c[nH]c3ccccc23)NC(=O)[C@H](Cc2ccc(O)cc2)NC(=O)[C@@H](NC(=O)[C@H](N)Cc2ccc3ccccc3c2)CSSC[C@@H](C(=O)N[C@H](C(N)=O)[C@@H](C)O)NC1=O [Compound A, D-2-Nal-c(Cys-Tyr-D-Trp-Lys-Val-Cys)-Thr-NH2]
[1]; required Cpss=1 ng/ml, Eqn. 10.5
  required input rate (K0): 8.98 µg/h
[1]
  required steady-state transdermal flux: 0.45 μg/cm^2/hr
[2]; from Jss across pig epidermis, 55/40/5 ethanol/water/cineole, patch area of 20 cm^2
  estimated daily systemic delivery across human skin: approximately 0.675 mg
[3]; 292 (ml/hr)/Kg×70 Kg
  CL for a 70 Kg human: 20,440 cm^3/hr
[3]; human, plasma, intravenous, 21 ug/kg, from Vss at 21 μg/Kg multiplied by 70 Kg
  Vd: 13 L
[4]; i.v. infusion 7 μg/Kg
  AUC: 21.2 ± 4.1 (ng/ml)/hr
  CL: 341 ± 62 (ml/hr)/Kg
  Kel: 0.87 ± 0.11 h⁻¹
  MRTinfusion: 42 ± 6 min
  Vss: 0.194 ± 0.041 L/kg
  t1/2: 48 ± 6 min
[4]; i.v. infusion 21 μg/Kg
  AUC: 74.3 ± 13.7 (ng/ml)/hr
  CL: 292 ± 58 (ml/hr)/Kg
  Kel: 0.69 ± 0.07 h⁻¹
  MRTinfusion: 48 ± 6 min
  Vss: 0.186 ± 0.044 L/kg
  t1/2: 60 ± 6 min
[4]; i.v. infusion 42 μg/Kg
  AUC: 180.6 ± 46.6 (ng/ml)/hr
  CL: 249 ± 72 (ml/hr)/Kg
  Kel: 0.43 ± 0.09 h⁻¹
  MRTinfusion: 54 ± 12 min
  Vss: 0.187 ± 0.049 L/kg
  t1/2: 96 ± 18 min

## CC[C@@H]1NC(=O)[C@H](CCCCN)NC(=O)[C@@H](Cc2c[nH]c3ccccc23)NC(=O)[C@H](Cc2ccc(O)cc2)NC(=O)[C@@H](NC(=O)[C@@H](Cc2ccccc2)NC(=O)CN2CCN(CCO)CC2)CSSC[C@@H](C(=O)N[C@H](C(N)=O)[C@@H](C)O)NC1=O [Compound B, [4-(2-hydroxyethyl)]-1-piperazinylacetyl-D-Phe-c(Cys-Tyr-D-Trp-Lys-Abu-Cys)-Thr-NH2]
[1]
  required steady-state transdermal flux: 0.23 μg/cm^2/hr
[2]
  estimated daily systemic delivery across human skin: approximately 2.665 mg

## CC(C(=O)O)c1ccc(N=[N+]=[N-])cc1 (stereo not drawn) [azidoprofen]
[5]; donor concentration 6 μmol cm-3
  flux through hairless mouse skin: 0.236 μmol cm-2 hr-1
[5]; donor concentration 15 μmol cm-3
  flux through hairless mouse skin: 0.649 μmol cm-2 hr-1

## C[C@@H](O)[C@@H]1NC(=O)[C@H](CCCCN)NC(=O)[C@@H](Cc2c[nH]c3ccccc23)NC(=O)[C@H](Cc2ccccc2)NC(=O)[C@@H](NC(=O)[C@H](N)Cc2ccccc2)CSSC[C@@H](C(=O)N[C@H](CO)[C@@H](C)O)NC1=O [octreotide, D-Phe-c(Cys-Phe-D-Trp-Lys-Thr-Cys)-Thr-ol]
[6]
  plasma levels of peptide: > 8 ng/mL
[7]
  apparent bioavailability: approximately 8%
  therapeutic plasma concentration throughout the iontophoretic episode: greater than 1 ng/ml
